Data from ChEMBL document CHEMBL1153646, “Peptidomimetic inhibitors of p21ras farnesyltransferase: Hydrophobic functionalization leads to disruption of p21ras membrane association in whole cells” (Bioorg Med Chem Lett, 1994).
Active and inactive are the calls of the source. The calls are words filed in the database; no cut-off is given here.

How the values were obtained:
[1] = target: Protein farnesyltransferase (Homo sapiens, UniProt P49354+P49356); test: In vitro inhibition of [3H]FPP incorporation into recombinant P21ras of NIH3T3 cells by farnesyl transferase; assay type: cell-based
[2] = target: Protein farnesyltransferase (Mus musculus) (UniProt Q61239+Q8K2I1); test: In vivo inhibition of p21ras-farnesyl transferase in NIH3T3 cells (No inhibition); assay type: functional

Compound	IC50 [1]	inhibition [2]
CSCC[C@H](NC(=O)c1cccc(CNC(=O)[C@H](CS)NC(=O)OCc2ccccc2)c1)C(=O)O	14 µM	inactive
CC[C@@H](C)[C@H](NC(=O)[C@@H](NC(=O)[C@H](CSC(=O)OCc1ccccc1)NC(=O)OCc1ccccc1)C(C)C)C(=O)N[C@@H](CCSC)C(=O)OC	90 µM	inactive
CC[C@H](C)[C@H](NC(=O)[C@@H](NC(=O)[C@@H](N)CS)C(C)C)C(=O)N[C@@H](CCSC)C(=O)O	0.34 µM	

Continued by falling IC50 [1], values first:

IC50 [1]	inhibition [2]	Compound
100 µM		COC(=O)[C@H](CCSC)NC(=O)c1cccc(CNC(=O)[C@H](CSC(=O)OCc2ccccc2)NC(=O)OCc2ccccc2)c1
100 µM	inactive	COC(=O)[C@H](CCSC)NC(=O)c1cccc(CNC(=O)[C@H](CS)NC(C)=O)c1
18 µM		COC(=O)[C@H](CCSC)NC(=O)c1cccc(CNC(=O)[C@@H](N)CS)c1
0.38 µM	inactive	CSCC[C@H](NC(=O)c1cccc(CNC(=O)[C@@H](N)CS)c1)C(=O)O
